Experimental data from patent US11964938B2, “3-phenyl-4-hexynoic acid derivatives as GPR40 agonists” (CELON PHARMA S.A., priority 2018, dated 2024).
Structures can show the parent of a compound that is named as a salt.

Experiments:
[1] = target: T1, MRP4 (Homo sapiens, UniProt O15439); assay: Vesicular transport inhibition assay, MRP4; assay type: biochemical; conditions: membrane vesicles from HEK293 cells
T1 construct: host or cells: HEK293 (membrane vesicles)
T1 sequence (O15439 1-1325): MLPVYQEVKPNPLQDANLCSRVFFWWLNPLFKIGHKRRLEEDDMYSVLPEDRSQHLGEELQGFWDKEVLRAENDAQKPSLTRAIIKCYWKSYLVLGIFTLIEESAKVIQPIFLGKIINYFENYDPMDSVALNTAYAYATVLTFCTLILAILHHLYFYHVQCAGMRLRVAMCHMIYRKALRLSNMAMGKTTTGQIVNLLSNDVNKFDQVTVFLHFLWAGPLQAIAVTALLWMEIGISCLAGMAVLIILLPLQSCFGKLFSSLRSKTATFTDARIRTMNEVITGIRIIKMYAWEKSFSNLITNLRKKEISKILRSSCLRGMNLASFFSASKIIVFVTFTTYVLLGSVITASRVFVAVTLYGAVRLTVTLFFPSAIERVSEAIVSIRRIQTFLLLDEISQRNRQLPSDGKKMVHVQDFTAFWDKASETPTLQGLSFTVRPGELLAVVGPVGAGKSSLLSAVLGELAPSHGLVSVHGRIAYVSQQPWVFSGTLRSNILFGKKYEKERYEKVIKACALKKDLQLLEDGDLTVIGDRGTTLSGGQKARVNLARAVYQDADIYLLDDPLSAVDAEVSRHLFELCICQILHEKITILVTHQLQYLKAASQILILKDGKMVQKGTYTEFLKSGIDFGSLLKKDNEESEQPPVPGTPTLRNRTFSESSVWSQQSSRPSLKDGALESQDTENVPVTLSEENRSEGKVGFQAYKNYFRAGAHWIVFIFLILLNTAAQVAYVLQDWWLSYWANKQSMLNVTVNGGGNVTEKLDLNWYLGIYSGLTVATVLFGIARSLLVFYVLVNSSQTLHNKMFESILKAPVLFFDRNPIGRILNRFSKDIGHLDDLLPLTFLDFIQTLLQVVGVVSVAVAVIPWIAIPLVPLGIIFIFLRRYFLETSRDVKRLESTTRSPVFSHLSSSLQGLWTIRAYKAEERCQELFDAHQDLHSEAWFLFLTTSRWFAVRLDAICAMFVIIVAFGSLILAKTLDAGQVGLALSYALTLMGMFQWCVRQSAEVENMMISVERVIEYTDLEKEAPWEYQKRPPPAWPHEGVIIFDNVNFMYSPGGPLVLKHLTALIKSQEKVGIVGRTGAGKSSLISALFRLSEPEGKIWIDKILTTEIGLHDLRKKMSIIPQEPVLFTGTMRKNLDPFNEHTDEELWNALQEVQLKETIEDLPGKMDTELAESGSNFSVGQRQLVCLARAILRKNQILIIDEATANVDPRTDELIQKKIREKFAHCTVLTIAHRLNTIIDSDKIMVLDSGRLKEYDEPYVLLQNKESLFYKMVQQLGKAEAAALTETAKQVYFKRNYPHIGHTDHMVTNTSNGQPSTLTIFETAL
Protocol: Experiment B4: Bile Acid Transporters Inhibition in the Liver. […] The compound was tested on a panel of 10 transporters: BSEP, MRP2, MRP3, MRP4 in a vesicular transport inhibition assay and NTCP, OAT1, OAT2v1, OATP1A2, OATP1B1, OATP1B3 in an uptake transporter inhibition assays. Vesicular transport inhibition assay was performed on membrane vesicles isolated from mammal HEK293 cells overexpressing human ABC transporters. Tested compound were incubated with vesicles and substrates for respective tested transporters. Incubation was performed in the presence of 4 mM ATP or AMP in order to differentiate between uptake by a transporter and passive diffusion into vesicles. In the case of MRP2 and MRP3, reactions were performed in the presence of 2 mM glutathione. Tested compounds were added to the reaction mixture dissolved in 0.75 μl of a solvent (1% of final incubation volume). Reaction mixtures were preincubated for 15 minutes at 37±1° C. Reactions were started by the addition of 25 μl of 12 mM MgATP (or 12 mM AMP) in test buffer, as a background control, separately preincubated.

[2] = target: T2, OAT2v1 (Homo sapiens, UniProt Q9Y694); assay: Uptake transporter inhibition assay, OAT2v1; assay type: cell-based; conditions: HEK293 cells overexpressing transporter
T2 construct: host or cells: HEK293
T2 sequence (Q9Y694 1-546 isoform Q9Y694-2): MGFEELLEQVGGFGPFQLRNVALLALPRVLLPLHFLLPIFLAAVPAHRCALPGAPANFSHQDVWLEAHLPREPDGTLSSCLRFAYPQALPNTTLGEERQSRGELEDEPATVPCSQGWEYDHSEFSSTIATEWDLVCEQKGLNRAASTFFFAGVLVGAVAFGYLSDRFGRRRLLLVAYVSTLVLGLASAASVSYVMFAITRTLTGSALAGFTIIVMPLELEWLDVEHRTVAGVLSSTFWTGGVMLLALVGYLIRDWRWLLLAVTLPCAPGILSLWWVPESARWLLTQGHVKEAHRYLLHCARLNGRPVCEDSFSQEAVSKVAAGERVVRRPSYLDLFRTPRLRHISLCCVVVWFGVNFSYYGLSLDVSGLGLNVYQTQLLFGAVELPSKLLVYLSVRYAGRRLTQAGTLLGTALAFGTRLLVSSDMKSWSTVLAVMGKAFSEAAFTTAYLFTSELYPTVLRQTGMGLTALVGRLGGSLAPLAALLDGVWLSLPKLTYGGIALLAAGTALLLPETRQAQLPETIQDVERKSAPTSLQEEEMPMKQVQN
Protocol: Experiment B4: Bile Acid Transporters Inhibition in the Liver.
The compound was tested on a panel of 10 transporters: BSEP, MRP2, MRP3, MRP4 in a vesicular transport inhibition assay and NTCP, OAT1, OAT2v1, OATP1A2, OATP1B1, OATP1B3 in an uptake transporter inhibition assays.
Transporter uptake inhibition test was performed on mammal HEK293 cells overexpressing of a respective transporter. Cells were cultured at 37±1° C. and seeded on 96-well tissue culture plate at 1×10^5/well. Substrate was removed prior to experiment and cells were washed twice with 100 μl of respective buffer (HK pH 7.4 for OATP1B1 and HBSS pH 7.4 for NTCP, OAT1, OAT2v1, OATP1A2, and OATP1B3). Uptake studies were performed at 37±1° C. in 50 μl of respective buffer containing radioactively tagged substrate and tested compound or solvent.
After experiment cells were washed twice with 100 μl of ice-cold respective buffer and lysed with 50 μl of 0.1M NaOH. Transport of radioactively tagged substrate was determined by scintillation counter measurement.

Structure (SMILES) | IC50 [1] [µM] | IC50 [2] [µM]
Cc1cc(OCCCS(C)(=O)=O)cc(C)c1-c1cccc(COc2ccc3c(c2)OC[C@H]3CC(=O)O)c1 [Example R1, 2[(3S)-6-({3-[4-(3-methanesulfonylpropoxy)-2,6-dimethylphenyl]-phenyl}methoxy)-2,3-dihydro-1-benzofuran-3-yl]acetic acid, reference compound] | 6.9 | 62.8
CC#C[C@@H](CC(=O)O)c1ccc(OCC(C)=C(C)C)cc1 [Example S1, (3S)-3-{4-[(2,3-dimethylbut-2-en-1-yl)oxy]phenyl}hex-4-ynoic acid calcium salt] | 131 | > 300
